In patent US20060035968A1, “Composition for preventing cancer comprising 2'-benzoyl-oxycinnamaldehyde” (Korea Research Institute of Bioscience and Biotechnology, priority 2004, published 2006):
“Also recorded” adds a separate entry of the source.

Experiments:
[1] = system: tumor cell growth; details: J. Biological Chemistry, 279(8), 6911-6920, 2004; cited from earlier work
[2] = system: splenocytes; test: Splenocyte proliferation by [3H]-thymidine after LPS or ConA stimulation; assay type: cell-based, mouse; details: splenocytes of treated mice stimulated with ConA, 48 hours, FIG. 3B
Experimental: On the other hand, 2×10^5 splenocytes were aliquotted into a 96-well plate, stimulated with a cell proliferation inducer, LPS (lipopolysaccharide) or ConA (concanavalin A), and cultured for 48 hours. 1 μCi of [^3H]-thymidine was added to each well, followed by incubation for 6 hours. Cells were harvested on a nitrocellulose membrane, and radiation activity was measured using a beta scintillation counter (Wallac, Turku, Finland) to investigate proliferation ability of splenocytes.

[3] = system: angiogenesis; details: J. Biological Chemistry, 279(8), 6911-6920, 2004; cited from earlier work
[4] = system: proliferative vitreoretinopathy (PVR) model in rabbits; details: IOVS, 43(9), 3117-3124, 2002; cited from earlier work
[5] = system: H-ras 12V-overexpressing mouse; test: Splenocyte number in H-ras-transgenic mouse; assay type: in vivo; details: 50 mg/kg i.p. once every two days for 10 weeks, Tg mouse vs control group (NTg), FIG. 3A
Experimental: A neonatal […] H-ras 12V-overexpressing mouse (KCTC 10318 BP) was intraperitoneally administered with 50 mg/kg of BCA and HCA (prepared by extracting the stem bark of C. cassia with organic solvents such as methanol and performing an isolation and purification process by various column chromatography methods) for ten weeks once every two days. Six months after birth, the spleen was excised from the mouse, and a single cell suspension was prepared. Red blood cells were removed from the single cell suspension using a RBC lysis solution (Sigma), and the number of splenocytes was counted under a microscope.

[6] = system: H-ras 12V-overexpressing mouse; test: Effect of BCA on incidence of liver cancer in H-ras-overexpressing mouse (liver histology); assay type: in vivo
Experimental: A neonatal […] H-ras 12V-overexpressing mouse (KCTC 10318 BP) was intraperitoneally administered with 50 mg/kg of BCA (prepared by reacting 2′-hydroxy-cinnamaldehyde (HCA) isolated from the stem bark of C. cassia with benzoyl chloride in the presence of triethylamine) for ten weeks once every two days. Six months after birth, the liver tissue was excised from the mouse in an aseptic state, fixed with a formaldehyde solution, and embedded in paraffin. The resulting paraffin block was sectioned into a thickness of 4 μm using a microtome (LEICA Company), and tissue sections were attached onto slides. The tissue was then stained with hematoxylin/eosin and observed under a reverse phased microscope (Model: Bx 50, Olympus Company).

[7] = animal test, J. Toxicol. Pub. Health, 2003, 19, 259-266; cited from earlier work
[8] = system: human retinal pigment epithelial (hRPE) cells; details: IOVS, 43(9), 3117-3124, 2002; cited from earlier work
[9] = biological target: farnesyl-protein transferase (Homo sapiens, UniProt P49356); details: in vitro; cited from earlier work
[10] = 50 mg/kg i.p. once every two days for ten weeks, six months after birth

Compound	inhibition of tumor cell growth [1]	T cell response (splenocyte proliferation) [2]	inhibition of angiogenesis [3]	antiproliferative effect in PVR model [4]	cell number in the spleen (splenocyte number) [5]	cell number in the spleen (splenocyte number) ([5]; listed as BSA)	portion progressed to cancer in the liver ([6]; 50 mg/kg i.p. once every two days for ten weeks from 4 months old, liver at six months, vs control FIG. 1A)	number of immune cells in the liver [6, 10]	tumor progression to liver cancer [6, 10]	toxicity in vivo [7]	apoptosis in hRPE cells [8]	inhibition of farnesyl-protein transferase [9]
O=C/C=C/c1ccccc1OC(=O)c1ccccc1 [BCA, 2′-benzoyloxycinnamaldehyde]	inhibitory effects	highest T cell response	inhibitory effects	antiproliferative effect	increased cell number	largest increase	remarkably reduced	increased	inhibited	no toxicity	induces apoptosis	inhibit; also recorded: inhibitory effects
O=CC=Cc1ccccc1O [HCA, 2′-hydroxycinnamaldehyde, reference compound]	inhibitory effects		inhibitory effects		increased cell number							inhibitory effects
